The values that follow are results of earlier work, collected in patent US9326930B2, “Calcium sequestration compositions and methods of treating skin pigmentation disorders and conditions” (NEOCUTIS S.A., priority 2009, dated 2016).

Data set [1] has as its system B16F0 melanoma cells. Particulars: L-forms, not D-forms.
For data set [2], the system named is melanocyte-keratinocyte co-cultures. Particulars: intracellular calcium in keratinocytes chelated. (In general: Calcium flux is commonly read through the fluorescence of an indicator in the cells.)
The target in data set [3] is melanocortin receptor 1 (MC1R) (Homo sapiens, UniProt Q01726).
Sequence of melanocortin receptor 1 (MC1R) (Q01726 whole entry, species assumed): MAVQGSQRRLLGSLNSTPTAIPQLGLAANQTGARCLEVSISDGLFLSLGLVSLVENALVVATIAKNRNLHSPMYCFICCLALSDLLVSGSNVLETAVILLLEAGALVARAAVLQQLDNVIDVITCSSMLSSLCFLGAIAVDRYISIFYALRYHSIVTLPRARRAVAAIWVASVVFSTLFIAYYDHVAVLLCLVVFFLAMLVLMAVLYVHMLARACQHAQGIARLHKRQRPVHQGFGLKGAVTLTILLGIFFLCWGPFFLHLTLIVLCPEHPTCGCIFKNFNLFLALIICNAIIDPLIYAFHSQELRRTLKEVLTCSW

For `C[C@H](N)C(=O)O` [L-alanine], the effect on pigmentation result in data set [1] was “hypopigmenting effects”.

Consider `CC(=O)OCOC(=O)CN(CC(=O)OCOC(C)=O)c1ccccc1OCCOc1ccccc1N(CC(=O)OCOC(C)=O)CC(=O)OCOC(C)=O` [BAPTA-AM, 1,2-bis-(o-aminophenoxy)-ethane-N,N,N′,N′-tetraacetic acid tetra-acetoxymethyl ester], for which, in data set [2], the melanin transfer result is “melanin transfer was inhibited”.

For the molecule `NCC(=O)O` [glycine], in data set [1], the effect on pigmentation result was “hypopigmenting effects”.

As to `CC(C)C[C@H](N)C(=O)O` [L-leucine], the effect on pigmentation result in data set [1] was “hypopigmenting effects”.

For `CC[C@H](C)[C@H](N)C(=O)O` [L-isoleucine], in data set [1], the effect on pigmentation entry is given as “hypopigmenting effects”.

Turning to `C=CCCCCCCCCC(=O)N[C@@H](Cc1ccccc1)C(=O)O` [undecylenoyl phenylalanine], the “affinity to MC1R” value in data set [3] is recorded as “affinity towards MC1R”. Also, the “action on α-MSH” value in data set [3] (in vitro) is listed as “antagonist of α-MSH”.
